From US8410153B2, “Naphthalene isoxazoline invertebrate pest control agents” (E.I. du Pont de Nemours and Company, priority 2007, dated 2013)

Key:
Assay type in all cases: in vivo
[1] = system: western flower thrips (Frankliniella occidentalis); assay: Test E: control of western flower thrips on Soleil bean plant, contact and/or systemic; details: held 6 days
Procedure: (§1) Test compounds were formulated using a solution containing 10% acetone, 90% water and 300 ppm X-77™ Spreader Lo-Foam Formula non-ionic surfactant containing alkylarylpolyoxyethylene, free fatty acids, glycols and isopropanol (Loveland Industries, Inc. Greeley, Colo., USA). The formulated compounds were applied in 1 mL of liquid through a SUJ2 atomizer nozzle with ⅛ JJ custom body (Spraying Systems Co. Wheaton, Ill., USA) positioned 1.27 cm (0.5 inches) above the top of each test unit. All experimental compounds in these tests were sprayed at 50 ppm, and the test was replicated three times. After spraying of the formulated test compound, each test unit was allowed to dry for 1 h and then a black, screened cap was placed on top. The test units were held for 6 days in a growth chamber at 25° C. and 70% relative humidity. Plant feeding damage was then visually assessed based on foliage consumed, and a pest mortality rating was also counted and calculated for each test unit.
For evaluating control of the western flower thrips (Frankliniella occidentalis) through contact and/or systemic means, the test unit consisted of a small open container with a 5-7-day-old Soleil Bean plant inside. Test compounds were formulated and sprayed as described for Test A. All experimental compounds in these tests were sprayed at 250 or 50 ppm as noted, and the test was replicated three times. After spraying, the test units were allowed to dry for 1 h, 22-27 adult thrips were added to each unit and then a black, screened cap was placed on top. The test units were held for 6 days at 25° C. and 45-55% relative humidity. A mortality rating was assessed along with a plant damage rating for each test unit.

[2] = system: diamondback moth (Plutella xylostella); assay: Test A: control of diamondback moth on radish plant, foliar spray; details: sprayed at 50 ppm, held 6 days
Source text: For evaluating control of diamondback moth (Plutella xylostella) the test unit consisted of a small open container with a 12-14-day-old radish plant inside. This was pre-infested with about 50 neonate larvae that were dispensed into the test unit via corncob grits using a bazooka inoculator. The larvae moved onto the test plant after being dispensed into the test unit.
as §1

[3] = system: fall armyworm (Spodoptera frugiperda); assay: Test B: control of fall armyworm on corn (maize) plant, foliar spray; details: sprayed at 50 ppm
Procedure: as §1
For evaluating control of fall armyworm (Spodoptera frugiperda) the test unit consisted of a small open container with a 4-5-day-old corn (maize) plant inside. This was pre-infested (using a core sampler) with 10-15 1-day-old larvae on a piece of insect diet. Test compounds were formulated and sprayed at 50 ppm as described for Test A and replicated three times. After spraying, the test units were maintained in a growth chamber and then the control efficacy was rated for each test unit as described for Test A.

Measured: levels of control efficacy (20% or less feeding damage or 80% or more mortality)

CCS(=O)(=O)CCNC(=O)c1ccc(C2=NOC(c3cc(C(F)(F)F)cc(C(F)(F)F)c3)(C(F)(F)F)C2)c2ccccc12 (centres unmarked) [Compound 99]
very good to excellent: [1]; sprayed at 50 ppm | [2] | [3]

CC(C)(C)CNC(=O)CNC(=O)c1ccc(C2=NOC(c3cc(C(F)(F)F)cc(C(F)(F)F)c3)(C(F)(F)F)C2)c2ccccc12 (centres unmarked) [Compound 103]
very good to excellent: [1]; sprayed at 50 ppm | [2] | [3]

CCC(CC)NC(=O)CNC(=O)c1ccc(C2=NOC(c3cc(Cl)cc(Cl)c3)(C(F)(F)F)C2)c2ccccc12 (centres unmarked) [Compound 25]
very good to excellent: [1]; sprayed at 250 ppm | [2] | [3]

CSCCNC(=O)c1ccc(C2=NOC(c3cc(Cl)c(Cl)c(Cl)c3)(C(F)(F)F)C2)c2ccccc12 (centres unmarked) [Compound 15]
very good to excellent: [1]; sprayed at 50 ppm | [1]; sprayed at 250 ppm | [2] | [3]

CSCCNC(=O)c1ccc(C2=NOC(c3cc(Cl)cc(Cl)c3)(C(F)(F)F)C2)c2ccccc12 (centres unmarked) [Compound 17]
very good to excellent: [1]; sprayed at 50 ppm | [1]; sprayed at 250 ppm | [2] | [3]

CC(C)NC(=O)C(C)NC(=O)c1ccc(C2=NOC(c3cc(Cl)cc(Cl)c3)(C(F)(F)F)C2)c2ccccc12 (mixture of isomers) [Compound 33]
very good to excellent: [1]; sprayed at 50 ppm | [1]; sprayed at 250 ppm | [2] | [3]

O=C(CNC(=O)c1ccc(C2=NOC(c3cc(Cl)cc(OC(F)(F)F)c3)(C(F)(F)F)C2)c2ccccc12)NCC(F)(F)F (racemic) [Compound 136]
very good to excellent: [1]; sprayed at 50 ppm | [2] | [3]

O=C(CNC(=O)c1ccc(C2=NOC(c3cc(Cl)cc(Cl)c3)(C(F)(F)F)C2)c2ccccc12)NCCF (centres unmarked) [Compound 12]
very good to excellent: [1]; sprayed at 50 ppm | [1]; sprayed at 250 ppm | [2] | [3]

CC(C)NC(=O)CNC(=O)c1ccc(C2=NOC(c3cccc(C(F)(F)F)c3)(C(F)(F)F)C2)c2ccccc12 (racemic) [Compound 38]
very good to excellent: [1]; sprayed at 50 ppm | [1]; sprayed at 250 ppm | [2] | [3]

COCC(C)NC(=O)c1ccc(C2=NOC(c3cccc(C(F)(F)F)c3)(C(F)(F)F)C2)c2ccccc12 (mixture of isomers) [Compound 47]
very good to excellent: [1]; sprayed at 50 ppm | [1]; sprayed at 250 ppm | [2] | [3]

CC(NC(=O)c1ccc(C2=NOC(c3cc(Cl)cc(Cl)c3)(C(F)(F)F)C2)c2ccccc12)C(=O)NCC(F)(F)F (mixture of isomers) [Compound 16]
very good to excellent: [1]; sprayed at 50 ppm | [1]; sprayed at 250 ppm | [2] | [3]

CC(O)CNC(=O)c1ccc(C2=NOC(c3cccc(C(F)(F)F)c3)(C(F)(F)F)C2)c2ccccc12 (mixture of isomers) [Compound 36]
very good to excellent: [1]; sprayed at 250 ppm | [2] | [3]

CNC(=O)C(C)NC(=O)c1ccc(C2=NOC(c3cc(F)cc(C(F)(F)F)c3)(C(F)(F)F)C2)c2ccccc12 (mixture of isomers) [Compound 138]
very good to excellent: [1]; sprayed at 50 ppm | [2] | [3]

O=C(NCCO)c1ccc(C2=NOC(c3cc(Cl)cc(Cl)c3)(C(F)(F)F)C2)c2ccccc12 (centres unmarked) [Compound 11]
very good to excellent: [1]; sprayed at 50 ppm | [1]; sprayed at 250 ppm | [2] | [3]

CC[S+]([O-])CCNC(=O)c1ccc(C2=NOC(c3cc(C(F)(F)F)cc(C(F)(F)F)c3)(C(F)(F)F)C2)c2ccccc12 (centres unmarked) [Compound 98]
very good to excellent: [1]; sprayed at 50 ppm | [2] | [3]

O=C(CNC(=O)c1ccc(C2=NOC(c3cc(Br)cc(Br)c3)(C(F)(F)F)C2)c2ccccc12)NCC(F)(F)F (centres unmarked) [Compound 23]
very good to excellent: [1]; sprayed at 50 ppm | [1]; sprayed at 250 ppm | [2] | [3]

CC(C)NC(=O)CNC(=O)c1ccc(C2=NOC(c3cc(Br)cc(C(F)(F)F)c3)(C(F)(F)F)C2)c2ccccc12 (racemic) [Compound 53]
very good to excellent: [1]; sprayed at 50 ppm | [1]; sprayed at 250 ppm | [2] | [3]

CC(CO)NC(=O)c1ccc(C2=NOC(c3cccc(C(F)(F)F)c3)(C(F)(F)F)C2)c2ccccc12 (mixture of isomers) [Compound 41]
very good to excellent: [1]; sprayed at 50 ppm | [1]; sprayed at 250 ppm | [2] | [3]
